These results are taken from US20210128654A1, “COMPOSITION FOR TREATING, PREVENTING, OR IMPROVING MALE INFERTILITY” (Mugen General Incorporated Association, priority 2018, published 2021).

Common to all, as to type: in vivo
Assay [1] relates to male testis-specific non-mitochondrial GPx4 knockout mouse. The experiment in a line: Mating test of male infertility model mouse (number of pregnancies and child mice). The settings on record: "VE high-content feed": vitamin E 100 mg + CE-2 feed 100 g, mating period 3 months. From the text: In this Example, as a male infertility model mouse, a male testis-specific non-mitochondrial GPx4 knockout mouse was used (see, Non Patent Literature 2). The testis-specific non-mitochondrial GPx4 knockout mouse is a mouse deficient in non-mitochondrial phospholipid hydroperoxide glutathione peroxidase (cGPx4) in the testis and has the phenotypes listed in the following Table 1.
(§1) A single 3 weeks-old male testis-specific non-mitochondrial GPx4 knockout mouse was assigned to each of the four groups shown in Table 2 (below) and separately raised (singly per cage) up to 8 weeks-old. To a normal control group, mouse breeding feed CE-2 (CLEA Rodent Diet CE-2; a product manufactured by CLEA Japan, Inc.) was fed during the test period. As a positive control substance, vitamin E (Non Patent Literature 1), which is used in treatment for male infertility, was selected and a mixture of feed CE-2 and vitamin E was fed to a positive control substance administration group during the test period. The ratio of vitamin E in the mixture was 100 mg relative to 100 g of feed CE-2. To the test groups, a mixture of feed CE-2 and koji mold fermentation product obtained in Example 1 was fed during the test period. For a low dose group, a feed having a content of koji mold fermentation product of 0.5 wt % was used. For a high dose group, a feed having a content of koji mold fermentation product of 5.0 wt % was used. Feed CE-2 and feed CE-2 mixed with the positive control substance or a koji mold fermentation product were free to take and water was free to drink from a water-supply bottle. In the aforementioned conditions, mice were raised from 3 weeks-old to 8 weeks-old.
When male testis-specific non-mitochondrial GPx4 knockout mice grew up to be crossable (8 weeks-old) mice, three of 7 weeks-old BALB/c female mice were assigned to each cage and crossed with a single male testis-specific non-mitochondrial GPx4 knockout mouse. The mating period was 3 months. […]

The test system is the same in assay [2]. The experiment in a line: Abnormal sperm ratio and sperm-tail fold angle by microscopy. The note with it: "VE high-content feed": vitamin E 100 mg + CE-2 feed 100 g; FIG. 4.
Excerpt: as §1, with “For a high dose group, a feed having a content of koji mold fermentation product of 5.0 wt % was used. Feed CE-2 and feed CE-2 mixed with the positive control substance or a koji mold fermentation product were free to take and water was free to drink from a water-supply bottle. In the aforementioned conditions, mice were raised from 3 weeks-old to 8 weeks-old.” left out
In a testis-specific non-mitochondrial GPx4 knockout mouse, a half or more of the sperms have an abnormal structure (a sperm tail is folded to form a hair-pin structure); in other words, abnormal sperm morphology. […] The sperms in a plurality of fields of view under the microscope were photographed, and the numbers of normal sperms and abnormal sperms in the photographs were counted, and then, an average ratio of abnormal sperms was calculated.

For assay [3] the test system is unchanged. The experiment in a line: Testis tissue observation (hematoxylin eosin), removal of spermatocytes. The note with it: "VE high-content feed": vitamin E 100 mg + CE-2 feed 100 g; FIG. 6. From the text: A single 3 weeks-old male testis-specific non-mitochondrial GPx4 knockout mouse was assigned to each of the four groups shown in Table 2 (below) and separately raised (singly per cage) up to 8 weeks-old. To a normal control group, mouse breeding feed CE-2 (CLEA Rodent Diet CE-2; a product manufactured by CLEA Japan, Inc.) was fed during the test period. As a positive control substance, vitamin E (Non Patent Literature 1), which is used in treatment for male infertility, was selected and a mixture of feed CE-2 and vitamin E was fed to a positive control substance administration group during the test period. The ratio of vitamin E in the mixture was 100 mg relative to 100 g of feed CE-2. To the test groups, a mixture of feed CE-2 and koji mold fermentation product obtained in Example 1 was fed during the test period. For a low dose group, a feed having a content of koji mold fermentation product of 0.5 wt % was used. For a high dose group, a feed having a content of koji mold fermentation product of 5.0 wt % was used. Feed CE-2 and feed CE-2 mixed with the positive control substance or a koji mold fermentation product were free to take and water was free to drink from a water-supply bottle. In the aforementioned conditions, mice were raised from 3 weeks-old to 8 weeks-old. […]

vitamin E: the “total number of child mice” value in assay [1] (3 females, FIG. 2b) is recorded as 60. The “number of child mice per delivery of the female mice” value in assay [1] (FIG. 2c) came to 7. Moreover, the “total number of pregnancies of three female mice” value in assay [1] (single male x 3 BALB/c females, FIG. 2a) came to 8. Besides, the “significantly low ratio of abnormal sperms” value in assay [2] is listed as “not observed”. The “removal of the spermatocytes in testis tissue” value in assay [3] is “improved”.
